Literature values in US12508236B2, “Solid nanoparticle with inorganic coating” (Nanexa AB, priority 2013, dated 2025).
“Also recorded” adds a separate entry of the source.

## CCOC(=O)C1=C(C)NC(C)=C(C(=O)OC)C1c1cccc(Cl)c1Cl (racemic) [Felodipine, (RS)-3-ethyl 5-methyl 4-(2,3-dichlorophenyl)-2,6-dimethyl-1,4-dihydropyridine-3,5-dicarboxylate]
  water solubility: very low water solubility

## CC(=O)Nc1ccc(O)cc1 [Paracetamol, N-(4-hydroxifenyl)acetamid]
heptane
  solubility in heptane: low solubility
  water solubility: high water solubility; also recorded: very water soluble
